Laboratory results reported in publication PMC9458250, “6-Formyl Umbelliferone, a Furanocoumarin from Angelica decursiva L., Inhibits Key Diabetes-Related Enzymes and Advanced Glycation End-Product Formation” (Molecules, 2022).

Key:
[1] = system: PTP1B expression in insulin-resistant C2C12 cells; assay: PTP1B expression by Western blot; assay type: cell-based; details: 40 μM, 24 h
Description: Insulin-resistant C2C12 cells (2 × 10^5 cells/well) in 6-well plates were treated with different concentrations of 6-FU for 24 h. After stimulation with 100 nM insulin for 30 min at 37 °C, the cells were washed three times with ice-cold PBS, collected, and lysed with sample buffer (50 mM HEPES, pH 7.5, 150 mM NaCl, 2.5 mM EDTA, 0.5% NP40, 1 mM PMSF, 1 mM DTT, 0.2% aprotinin, 0.5% leupeptin, 20 mM NaF, and 1 mM Na3VO4) on ice. After incubation for 30 min, the insoluble materials were removed by centrifugation at 25,000× g for 20 min. The protein concentrations were determined using a modified Bradford protein assay kit. Total protein (50 μg) was subjected to dodecyl sulfate–polyacrylamide gel electrophoresis and transferred to a polyvinylidene difluoride membrane. The membranes were blocked in blocking buffer (5% skim milk in Tris-buffered saline containing 0.1% Tween 20 (TBST)) and incubated with primary antibodies overnight at 4 °C, followed by incubation with appropriate secondary antibodies for 4 h at room temperature. The membranes were washed three times with TBST for 40 min. The bands were detected using Super Signal West Pico chemiluminescence substrate (Pierce, Rockford, IL, USA) according to the manufacturer’s instructions. The immunoreactive protein bands were detected using an Odyssey scanning system (LI-COR, Lincoln, NE, USA). […]

[2] = target: T1, human recombinant aldose reductase (HRAR) (Homo sapiens, UniProt P15121); assay: HRAR inhibition assay (NADPH absorption decrease, DL-glyceraldehyde substrate); assay type: biochemical
T1 construct: purchased Wako Chemicals (Osaka, Japan)
Description: HRAR inhibition was examined as described by Ali et al.. Briefly, AR activity was determined by measuring the decrease in NADPH absorption at 340 nm over a period of 1 min on an Ultrospec®2100pro UV/Visible spectrophotometer (Cytiva, Buckinghamshire, UK). SWIFT II Applications software (Amersham Biosciences, NJ, USA) was used for all data analyses. […] The inhibition percentage (%) was calculated as described in the RLAR assay, except that the DA sample per min value represented the reduction in absorbance for 1 min with the test samples and substrate. The ability of each sample to inhibit HRAR was expressed as an IC50 value (µM), which was calculated from the log-dose inhibition curve.
(§1) To determine the inhibition mechanism, enzymatic inhibition at various concentrations of 6-FU was evaluated by monitoring the effects of different concentrations of substrates via Dixon plots. Dixon plots for PTP1B inhibition by 6-FU were obtained in the presence of 0.5, 1, and 2 mM pNPP. The test concentrations of 6-FU in the PTP1B kinetic analysis were 0, 1.25, 2.5, 5.0, and 10 µM. Dixon plots for α-glucosidase inhibition by 6-FU were performed in the presence of 0.625, 1.25, and 2.5 mM pNPG. The test concentrations of 6-FU used in the α-glucosidase kinetic analysis were 0, 31.25, 62.5, 125, and 250 µM. Both enzymatic procedures followed the PTP1B and α-glucosidase assay methods. Dixon plots for HRAR inhibition by 6-FU were performed in the presence of 5, 10, and 20 mM of DL-glyceraldehyde as the substrate. The test concentrations of 6-FU used in the HRAR kinetic analysis were 0, 0.08, 0.4, 2, and 10 µM. The Dixon plot is a graphical method [1/enzyme velocity (1/V) against inhibitor concentration (I)] for determining the type of enzyme inhibition and was used to determine the dissociation or inhibition constant (Ki) for the enzyme–inhibitor complex. Thus, the type of enzyme inhibition was determined by interpreting the Lineweaver–Burk plots, and the inhibition constants (Ki) were determined by interpreting the Dixon plots.

Yeast α-glucosidase = Yeast α-glucosidase (Saccharomyces cerevisiae, UniProt P53341); assay: α-glucosidase inhibitory assay using pNPG; assay type: biochemical; details: Dixon and Lineweaver-Burk plots
Description: as §1

[3] = system: advanced glycation end-product (AGE) formation; assay: Inhibition of fluorescent AGE formation in HSA-glucose-fructose system; set-up: species or system human; details: for percentage of inhibition of AGE formation: week 4 of incubation
Description: The formation of glycated HSA-fructose-glucose was examined according to a previously published method. To prepare the AGE reaction solution, 20 mg/mL HSA in 50 mM sodium phosphate buffer (pH 7.4) was added to 0.2M fructose, 0.2 M glucose, and 0.02% sodium azide to prevent bacterial growth. The reaction mixture (3.8 mL) was then mixed with 200 μL of various concentrations of 6-FU and aminoguanidine hydrochloride dissolved in 10% DMSO. The control was prepared using HSA and sugars, and a blank was prepared using only HSA in the same buffer. The reaction mixtures were incubated at 37 °C for 4 weeks. Aliquots of the reaction mixtures were then assayed to determine the presence of AGEs.
The ability of the isolates to inhibit AGE formation was evaluated according to a previously published method with slight modifications. To prepare the AGE reaction solution, 20 mg/mL HSA in 50mM sodium phosphate buffer (pH 7.4) was added to 0.2M fructose and 0.2 M glucose, along with 0.02% sodium azide to prevent bacterial growth. The reaction mixture (950 μL) was then combined with various concentrations of 6-FU (50 μL, test concentration ranging from 0.8 to 100 μM) dissolved in 10% DMSO. After incubating the mixture at 37 °C, AGE formation in the aliquots was determined at weekly intervals using a spectrofluorometric detector (FLx800 microplate fluorescence reader, Bio-Tek Instrument, Inc., Winooski, VT, USA) with excitation and emission wavelengths of 350 nm and 450 nm, respectively. The nucleophilic hydrazine compound aminoguanidine was used as a reference in the AGE assay.

C2C12 cells = assay: C2C12 cell viability (MTT assay); assay type: cell-based; details: 24 h, up to 40 μM (tested up to 80 μM)
Description: The C2C12 cell line (skeletal muscle cells) was purchased from the American Type Culture Collection (Manassas, VA, USA). The C2C12 cells were cultured at 37 °C in DMEM supplemented with 10% FBS and P/S (Hyclone, Mordialloc, VIC, Australia) in a humidified atmosphere with 5% CO2. The tetrazolium dye colorimetric test (MTT) was used to determine cell viability. First, the C2C12 cells were cultured in 96-well plates (2 × 10^5 cells/well) for 24 h. After they reached 90% confluence, they were treated with various concentrations of 6-FU. After 24 h of incubation, the MTT reagent was added to each well, and the plate was incubated for 2 h at 37 °C. The media were removed, and the wells were washed twice with PBS (pH 7.4). To measure the proportion of surviving cells, the medium was replaced with 100 μL DMSO (100%). The resulting absorbance values were measured at 570 nm with a microplate reader (Molecular Devices, Sunnyvale, CA, USA).

[4] = system: insulin-resistant C2C12 skeletal muscle cells; assay: 2-NBDG glucose uptake assay; assay type: cell-based
Description: The C2C12 cells were cultured in 96-well plates (2 × 10^5 cells/well) with DMEM containing 10% FBS and 1% P/S at 37 °C and exposed to a 5% CO2 atmosphere. When the cells reached confluence, they were subjected to differentiation in DMEM supplemented with 2% horse serum for 5 days. Then the cells were starved in low-glucose serum-free DMEM for 24 h. Subsequently, the 2-NBDG assay was performed to evaluate glucose uptake. The cells were treated with various concentrations of 6-FU and insulin (100 nM) for 12 h, followed by 20 μM 2-NBDG for 24 h. To stop the response, the cells were washed three times with ice-cold PBS, and then the 2-NBDG fluorescence intensity was measured on a microplate reader (FL × 800, Bio-Tek Instruments Inc., Winooski, VT, USA) at 490 nm (excitation) and 535 nm (emission). Five replicate wells were established, and each experiment was replicated three times. Rosiglitazone was used as the positive control.

[5] = target: T2, PTP1B (human recombinant) (Homo sapiens, UniProt P18031); assay: PTP1B inhibition assay using pNPP; assay type: biochemical
T2 construct: purchased Biomol International LP (Plymouth Meeting, PA, USA)
T2 sequence (P18031 1-435): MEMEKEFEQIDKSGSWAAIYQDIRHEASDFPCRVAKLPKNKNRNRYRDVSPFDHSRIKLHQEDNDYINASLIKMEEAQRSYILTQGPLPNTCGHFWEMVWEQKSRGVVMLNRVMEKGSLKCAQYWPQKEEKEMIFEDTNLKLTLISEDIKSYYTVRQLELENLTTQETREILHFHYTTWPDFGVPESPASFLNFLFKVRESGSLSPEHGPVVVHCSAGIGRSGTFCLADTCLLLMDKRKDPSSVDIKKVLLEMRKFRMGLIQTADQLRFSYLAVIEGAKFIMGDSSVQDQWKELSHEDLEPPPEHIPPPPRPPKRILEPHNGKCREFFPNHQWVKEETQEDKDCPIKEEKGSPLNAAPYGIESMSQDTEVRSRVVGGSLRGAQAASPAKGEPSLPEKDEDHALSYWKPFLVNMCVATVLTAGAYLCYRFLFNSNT
Description: The PTP1B inhibitory activity was evaluated using pNPP according to the modified procedure reported by Ali et al..
as §1

[6] = Dixon and Lineweaver-Burk plots

Yeast α-glucosidase, sequence (P53341 whole entry): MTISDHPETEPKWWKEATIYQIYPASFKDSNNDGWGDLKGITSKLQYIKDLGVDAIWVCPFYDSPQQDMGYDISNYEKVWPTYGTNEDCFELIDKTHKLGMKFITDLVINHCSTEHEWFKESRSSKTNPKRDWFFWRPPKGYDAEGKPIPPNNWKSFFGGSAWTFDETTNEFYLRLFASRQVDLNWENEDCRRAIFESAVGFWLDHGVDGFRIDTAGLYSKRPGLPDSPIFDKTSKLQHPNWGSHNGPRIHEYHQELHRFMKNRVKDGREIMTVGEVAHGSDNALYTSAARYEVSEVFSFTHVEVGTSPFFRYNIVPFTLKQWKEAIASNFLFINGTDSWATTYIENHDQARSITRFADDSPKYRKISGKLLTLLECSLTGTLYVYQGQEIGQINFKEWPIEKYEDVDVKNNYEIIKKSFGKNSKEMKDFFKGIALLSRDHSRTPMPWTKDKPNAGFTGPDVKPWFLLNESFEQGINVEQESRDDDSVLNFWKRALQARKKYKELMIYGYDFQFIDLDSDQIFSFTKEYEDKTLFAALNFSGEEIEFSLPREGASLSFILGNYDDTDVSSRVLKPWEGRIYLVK

## O=Cc1cc2ccc(=O)oc2cc1O [6-FU, 6-formyl umbelliferone]
[1]
  PTP1B expression level: decreased
[2]
  IC50: 5.11 ± 0.21 µM
  Ki: 4.87 µM
[2]; [6]
  Inhibition type HRAR: Mixed
Yeast α-glucosidase
  Inhibition type α-Glucosidase: Mixed
[3]; AGE formation, mean ± SEM of triplicates
  IC50: 2.15 ± 0.13 µM
[3]; 0.8 μM
  percentage of inhibition of AGE formation: 24.04%
[3]; 4.0 μM
  percentage of inhibition of AGE formation: 55.73%
[3]; 20 μM
  percentage of inhibition of AGE formation: 64.18%
[3]; 100 μM
  percentage of inhibition of AGE formation: 82.60%
C2C12 cells
  cytotoxicity (cell viability, MTT): not cytotoxic
[4]; 10, 20, and 40 μM, compared with the control
  insulin-stimulated 2-NBDG uptake: significantly enhanced
[5]
  IC50: 1.13 ± 0.12 µM
  Ki: 1.72 µM
[5]; [6]
  Inhibition type PTP1B: Competitive

## N=C(N)NN [Aminoguanidine, aminoguanidine, reference compound]
[3]; 100 μM
  percentage of inhibition of AGE formation: 57.23%

## O=C(O)Cn1c(=O)n(Cc2ccc(Br)cc2F)c(=O)c2ccc(Cl)cc21 [Zenarestat, zenarestat, reference compound]
[2]
  IC50: 0.63 ± 0.01 µM

## CN(CCOc1ccc(CC2SC(=O)NC2=O)cc1)c1ccccn1 (stereo not drawn) [rosiglitazone, reference compound]
[4]; 5 μM
  insulin-stimulated glucose uptake: significantly increased
